In US20200239530A1, “COMPOUNDS AND METHODS OF MODULATING PROTEIN DEGRADATION” (Vividion Therapeutics, Inc., priority 2017, published 2020):
Read-outs that look alike come from different tables or passages of the source. Each block holds one molecule with its values, some of them ahead of it.

Molecular target: T1, TRIM71 E3 ubiquitin-protein ligase TRIM71 (Homo sapiens, UniProt Q2Q1W2)
T1 construct: Cells were resuspended in cold PBS on ice and sonicated with a probe sonicator to achieve lysis; endogenous in cells
T1 sequence (Q2Q1W2 1-868): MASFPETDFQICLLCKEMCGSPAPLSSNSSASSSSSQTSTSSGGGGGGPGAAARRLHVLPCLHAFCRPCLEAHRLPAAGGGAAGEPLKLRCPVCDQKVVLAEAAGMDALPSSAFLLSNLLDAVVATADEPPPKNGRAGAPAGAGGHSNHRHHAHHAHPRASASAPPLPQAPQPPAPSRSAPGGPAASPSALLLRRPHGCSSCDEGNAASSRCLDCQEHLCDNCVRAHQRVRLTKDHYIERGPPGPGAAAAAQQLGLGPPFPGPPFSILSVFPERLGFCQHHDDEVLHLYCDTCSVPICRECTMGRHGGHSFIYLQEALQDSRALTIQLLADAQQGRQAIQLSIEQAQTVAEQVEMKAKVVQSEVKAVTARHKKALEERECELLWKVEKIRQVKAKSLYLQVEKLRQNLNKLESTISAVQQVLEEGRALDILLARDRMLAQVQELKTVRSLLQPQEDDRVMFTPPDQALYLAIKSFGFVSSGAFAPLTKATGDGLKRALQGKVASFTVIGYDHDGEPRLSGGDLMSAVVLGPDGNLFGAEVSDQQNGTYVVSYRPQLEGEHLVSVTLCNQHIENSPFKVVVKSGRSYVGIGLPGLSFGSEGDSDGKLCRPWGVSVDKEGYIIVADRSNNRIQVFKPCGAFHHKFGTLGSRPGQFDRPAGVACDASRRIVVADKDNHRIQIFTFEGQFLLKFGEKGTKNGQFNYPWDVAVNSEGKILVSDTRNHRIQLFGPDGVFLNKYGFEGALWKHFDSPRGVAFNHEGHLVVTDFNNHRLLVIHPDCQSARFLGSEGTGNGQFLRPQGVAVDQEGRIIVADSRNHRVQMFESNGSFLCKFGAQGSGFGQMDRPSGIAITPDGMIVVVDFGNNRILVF
Assay: Cysteine liganding, probe competition
Type: binding
Protocol: Cells were resuspended in cold PBS on ice and sonicated with a probe sonicator to achieve lysis. 200 μL of lysate containing 5 mg/ml proteome was treated with 2 μL of 100× compound stock in a 2-mL deep-well plate. The treated lysate was subsequently incubate at 25° C. for 1 hr with shaking at 600 rpm. The treated lysate was further incubated with 2 μL of 10 mM desthiobiotin iodoacetamide probe at 25° C. for 1 hr with shaking at 600 rpm. Next, the lysate was further treat with 20 μL of solution of PBS containing 11 mM MgSO4 and 2.5% Turbonuclease stock and incubated at 25° C. for 20 minutes with shaking at 600 rpm. 1.7 mL ice-cold acetone was added to each well and incubated at −20° C. for 2 hr, followed by max speed (4200 rpm) spin for 45 min. Acetone was then decanted and the plates were blotted to remove acetone. The plates were then dried in open air for 20 minutes. After drying, the plates were then covered with foil seal and stored at −80° C. overnight.
The next day, samples were re-suspended in 90 μL of solution of 9M urea, 50 mM ammonium bicarbonate and 10 mM DTT by incubating at 65C for 20 min with shaking at 1500 rpm. Next, samples were cooled to 37° C. and then 10 μL of 500 mM iodoacetamide solution (92.48 mg/ml) was added. The samples were then incubated at 37° C. for 30 min with shaking at 600 rpm.
ZEBA desalting plates were equilibrated 4 times using 250 μL of 2M urea, 50 mM ammonium bicarbonate solution followed by centrifugation at 1500 rpm for 2 minutes. After equilibration was complete, samples were applied to ZEBA desalting plate and spin at 1500 rpm for 2 min on top of 1 mL 96-well deep-well collection plate to buffer exchange samples. 4 μL of solution containing 25 mM CaCl2 and 0.25 mg/mL trypsin was added to the plate and the plate was then incubated at 37° C. for 2 hrs with shaking at 600 rpm. 300 μL of solution containing 5% high-capacity streptavidin agarose slurry in 25 mM Tris-HCl pH 7.5, 150 mM NaCl, and 0.1% NP-40 then added. The plate was incubated at 25° C. for 2 hrs with shaking at 600 rpm. Samples were transferred to 25 μm filter plate and spin at 1000 rpm for 2 min. Samples were then washed 3 times with 0.75 mL of wash buffer (25 mM Tris-HCl pH 7.5, 150 mM NaCl, and 0.1% NP-40) followed by washing 3 times with 0.75 mL PBS, and then 4 times with 0.75 mL water. After the washing step, samples were eluted into polypropylene 96-well plate by addition of 250 µL of 50% MeCN/water, 0.1% formic acid and allowed to gravity drip for 10 min, followed by centrifugation at 1000 rpm for 2 min. Speedvac was used to dry the plates at about 45° C. for […]. Then the plates were covered with foil seal and stored at −20° C.
Samples were resuspended by addition of 20 μl of 12.5% ACN, 0.1% formic acid solution, covered with foil seal, and incubated at 42° C. for 10 minutes with shaking at 600 rpm. Then add 30 μL of 0.1% formic acid solution was added and the plate was covered and incubated at 42° C. for 10 minutes with shaking at 600 rpm. Seal plate was then sealed with a 96-well silicon mat for analysis.

Structure (SMILES): COc1ccc2c(c1)CCCN2C(=O)CCl [KB02]
inhibition at 100 µM (100 uM, UniProt Q2Q1W2, read-out: KB02_100 uM_percent_inhibition): 39%
Liganded (TRIM71 Res# 636, uniprot Q2Q1W2): YES

inhibition at 100 µM (100 uM, UniProt Q2Q1W2, read-out: KB05_100 uM_percent_inhibition): 5%
Structure (SMILES): C=CC(=O)N(c1ccccc1)c1ccc(Br)cc1 [KB05]

Structure (SMILES): O=C(CCl)Nc1cc(C(F)(F)F)cc(C(F)(F)F)c1 [KBO3]
KB03_100 uM_percent_inhibition (100 uM, UniProt Q2Q1W2): 17%
100 Max (uniprot Q2Q1W2): 17.2
100 ave (uniprot Q2Q1W2): 17.2
500 Max (uniprot Q2Q1W2): 64.2
500 ave (uniprot Q2Q1W2): 64.2
